Where “and” joins values, the source holds several entries; their conditions need not be identical. Identical values can stand only once. Some results are limits rather than exact numbers.

Format in all cases: biochemical
In experiment [1] the test system is β-glucosidase from almonds. Briefly: Indigogenic reaction with β-glucosidase from almonds.
Experiment [2] addresses T1, β-glucosidase from Agrobacterium sp. (Agrobacterium sp., UniProt P12614).
T1 construct: purchased Megazyme
T1 sequence (P12614 1-459): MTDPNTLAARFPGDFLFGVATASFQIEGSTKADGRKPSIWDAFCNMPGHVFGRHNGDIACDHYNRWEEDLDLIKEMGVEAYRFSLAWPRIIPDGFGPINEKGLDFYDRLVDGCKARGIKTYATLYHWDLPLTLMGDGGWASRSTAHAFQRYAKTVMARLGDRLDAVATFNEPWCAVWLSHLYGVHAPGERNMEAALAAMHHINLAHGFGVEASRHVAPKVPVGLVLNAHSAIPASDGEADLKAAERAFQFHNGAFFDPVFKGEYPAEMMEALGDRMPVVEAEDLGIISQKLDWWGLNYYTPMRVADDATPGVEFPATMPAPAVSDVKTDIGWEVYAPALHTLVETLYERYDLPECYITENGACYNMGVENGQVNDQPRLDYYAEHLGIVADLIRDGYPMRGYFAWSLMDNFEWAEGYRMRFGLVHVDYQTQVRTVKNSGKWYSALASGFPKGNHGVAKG
Briefly: Oligomerization of compound V with β-glucosidase. As for the experimental part:
The oligomerization of compound V was examined by treatment with the enzyme […]-glucosidase. The reaction mixture contained 50 μM of compound V and 200 nM of β-glucosidase (250-fold ratio). The reaction mixture was only faintly blue but upon centrifugation after 5 h of incubation, a blue precipitate was obtained. According to the colors of samples (FIG. 13, panel A), the yield of precipitate is low by comparison with our previously reported enzyme-substrate pairs (see Example 1). Multiple additions of enzyme (4×0.20 μM of enzyme stock, every 2 h) and longer incubation times (10 h or 24 h) were also tested but no increase in solution intensity or precipitate was observed. For the samples after 300 min of incubation, the precipitates suspended in H2O were screened by optical microscopy (FIG. 13, panel B) and DLS (FIG. 13, panel C). The size of aggregates is between 100 and 1000 nm as measured by DLS, which is consistent with the images obtained by optical microscopy (˜1 μm).
Quantitation of the indigogenic compounds in the precipitate and supernatant was carried out by absorption spectroscopy and multicomponent analysis (MCA) (M. Taniguchi, et al., Photochem. Photobiol., 2018, 94, 277-289) (FIG. 13, panels D and E). MCA analysis is essential due to the overlaid spectra of indigo and coumarin at 362 nm, the peak wavelength for the coumarin. Spectral deconvolution relied on knowledge of the molar absorption coefficient at 362 nm of coumarin (εcou362=2.0×10^4 M^−1 cm^−1 measured in DMF) and indigo model compound F19 (see Example 1 where F-19 is compound 43) shown in Chart 2 (εind362=0.81×10^4 M^−1 cm^−1 measured in DMSO/H2O, v/v=2/1); and the molar absorption coefficient of F19 at 630 nm (εind630=2.6×10^4 M^[…] cm^−1, measured in DMSO/H2O, v/v=2/1). The residual upon MCA was smaller than any of the components, as required for accurate analysis (Y. Mang, et al., Phytochem. Anal., 2018, 29, 205-216). In this manner, the precipitate is composed of 51.6 nmol of coumarin and 2.8 nmol of indigoid dye; the supernatant is composed of 11.1 nmol of coumarin and 0.3 nmol of indigoid dye.
Materials. DMF (HPLC grade) was purchased from Alfa Aesar. H2O (molecular biology grade) for buffer preparation was purchased from Millipore Sigma. Compound V (5.6 mg) was dissolved in DMF (26 μL) to prepare 100 mM stock solution. Pi buffer was prepared freshly at 10 mM, pH 7. The enzyme β-glucosidase from Agrobacterium sp. was purchased from MegaZyme and was dissolved in Pi buffer at 10 μM to prepare the stock solution.
To screen the oligomerization procedure of compound V, samples of Pi buffer (1859 μL), DMF (100 μL), β-glucosidase stock (40 μL) and compound V stock (1 μL) were mixed in a 2-mL Eppendorf tube. The resulting mixed sample (2.0 mL) contains 50 μM of compound V as the substrate and 0.20 μM of β-glucosidase as the enzyme. Three identical samples were prepared for different assays. For a control sample, 40 μL of Pi buffer was added as a replacement for the β-glucosidase stock solution. The tubes were incubated at 37° C. for 5 h, and pictures of the tubes were captured at 0, 15, 30, 60, 120, 180 and 300 min. After 300 min, the tubes were centrifuged at 20,000×g for 10 min to isolate any precipitate from the supernatant. No precipitate formed in the control sample.
Three samples were treated differently for three assays: (1) for sample 1, the precipitate was dissolved in 100 μL of DMF for absorption screening; (2) for sample 2, the precipitate was suspended in 100 μL of H2O for microscopic imaging; and (3) for sample 3, the precipitate was suspended in 1000 μL of H2O for dynamic light scattering (DLS) assay. The supernatant of sample 1 was freeze-dried under high vacuum and afterwards dissolved in 100 μL of DMF for absorption screening. The absorption spectra of the precipitates and supernatants were employed for quantitation of indigo and coumarin. […]

Experiment [3] concerns the target T2, β-glucosidase from Agrobacterium (Agrobacterium sp., UniProt P12614).
T2 construct: purchased Megazyme
T2 sequence (P12614 1-459): T1 sequence (P12614 1-459)
Briefly: Enzyme-triggered oligomerization of bis(indoxyl-glucoside) 46. How it is done: Oligomerization of 46 was carried out by treatment with β-glucosidase from Agrobacterium (200 nM) in 10 mM phosphate buffer (pH 7) at 37° C. for 2-4 h (Scheme 9). Precipitation occurred during the reaction. After centrifugation, the precipitate was separated from the supernatant, washed with H2O, and dried to afford a blue solid.
The efficacy of the indigogenic oligomerization was examined under a variety of conditions. As shown in entries 1-4 in Table 2, the yield of indigoid dye in the supernatant versus precipitate reversed as the concentration of 46 was decreased from 300 to 10 μM, although the total yields were in the range 17-29%. While the reactions in entries 1-4 were carried out in phosphate buffer containing NaCl (0.05 M), those of entries 5 and 6 (with 300 and 50 μM of 46, respectively) were conducted in NaCl-free phosphate buffer. The use of NaCl-free phosphate buffer facilitated extraction of the indigoid dye in the supernatant for analysis.
The time course of the oligomerization was examined under the reaction conditions listed in entry 5 of Table 2, with 300 μM of 46. Noticeable changes include observation of blue clouding and color deepening at 20 min. Centrifugation enabled isolation of the precipitate. […] The absorption spectrum of the precipitate was examined in DMF/DMSO (9:1) and compared with that of the extracted supernatant (in DMF) and 43 (in DMF) (FIG. 10D). […] Size-exclusion chromatography (SEC) [DMF/DMSO (9:1) as eluent] was applied to the precipitate and to the supernatant extract prepared from 300 μM of 46 (FIG. 10E). The first peak appeared at 18-20 min, and then the second peak at 38.5 min. The ratio of peak areas in the supernatant extract was 11:89, whereas that in the precipitate was 93:7. On the basis of a calibration curve prepared with poly(2-vinylpyridine) standards, the molecular size for the first and second peaks was expected to be >265 and <1 kDa, respectively. The large molecular size indicated for the first peak likely implies aggregation or assembly of the oligomers. The chromatograms for the samples prepared with 50 μM of 46 gave similar results but with higher purity compared with those at higher concentration.

Experiment [4] concerns the target T2, β-glucosidase from Agrobacterium. Briefly: Indigogenic reaction with β-glucosidase from Agrobacterium. As for the experimental part: Next, the β-glucosidase from Agrobacterium sp. was investigated as the trigger enzyme for indigoid dye formation. […] The reaction was carried out using the enzyme (200 nM) and indoxyl-glucoside 33 (100 μM) in phosphate buffer (pH 4-9, containing 2% DMF) at 37° C. […] Note that with 200 nM enzyme and 100 μM substrate, complete reaction requires 500 turnovers of each enzyme.
Reactions with β-glucosidase from Agrobacterium. An indoxyl compound in DMF (2 μL, 5 mM) and β-glucosidase from Agrobacterium in 10 mM phosphate buffer [2 μL, 10 μM, pH 7.0, containing 50 mM NaCl and 0.6 M (NH4)2SO4] were mixed with 50 mM phosphate buffer (96 μL, pH 7.0). The reaction mixture was incubated at 37° C. for 2 h and then centrifuged for 3 min. Any precipitate was separated from the supernatant and dissolved in DMF (200 μL). The resulting solution was analyzed by absorption spectroscopy. The experiment was repeated three times.

[5] abbreviates: indoxyl 1 mM, enzyme 1 unit/mL, 0.01M acetate buffer pH 5, 5% DMF, 37° C., 16-19 h, ϵ = 1.27 × 10^4 M^−1 cm^−1 measured for 4.
The mark [6] stands for this setting: 100 nmol compound V added, absorption spectroscopy and MCA.
[7] abbreviates: absorption spectroscopy and MCA.

On to `COC(=O)COc1ccc2[nH]cc(O[C@@H]3O[C@H](CO)[C@@H](O)[C@H](O)[C@H]3O)c2c1Br` [Compound 23, 4-Bromo-5-(methoxycarbonyl)methoxy-1H-indol-3-yl β-D-glucopyranoside], for which the “Yield (%) β-glucosidase from almonds” value in experiment [1] (setting [5]) is 68%.
Still for that read-out and setting: the figure for `COC(=O)COc1ccc2[nH]cc(O[C@@H]3O[C@H](CO)[C@@H](O)[C@H](O)[C@H]3O)c2c1` [Compound 22, 5-(Methoxycarbonyl)methoxy-1H-indol-3-yl β-D-glucopyranoside] is less than 1%; for `C#CCOc1ccc2[nH]cc(O[C@@H]3O[C@H](CO)[C@@H](O)[C@H](O)[C@H]3O)c2c1` [Compound 25, 5-Propargyloxy-1H-indol-3-yl β-D-glucopyranoside] it is less than 5%.
“5-bromo-4-chloroindoxyl β-glucoside [Compound 42, reference compound]”: in experiment [1] (as E1 but ϵ = 2.00 × 10^4 M^−1 cm^−1 reported for 5,5′-dibromo-4,4′-dichloroindigo), the “Yield (%) β-glucosidase from almonds” value was 74% and 74^e %.
Regarding “2,4-Bis[1-(3-(β-D-glucopyranosyloxy)-4,6-dibromo-1H-indol-5-yl)-1,4,7,10-tetraoxadec-10-yl]-6-[14-(3-(2-(1-azido-3,6,9,12,15-pentaoxoheptadecylamino)-4-[12-((4-methyl-2H-chromen-2-one-7-yl)amino)ethylamino]-1,3,5-triazin-6-yloxy)propyl)-4-(3-sulfopropyl)piperazin-1-yl]-1,3,5-triazine [Compound V]”, in experiment [2] (setting [6]), the “Indigoid dye in the precipitate” value came out at 2.8 nmol and the “Indigoid dye in the supernatant” value was 0.3 nmol. Also, the “Yield of indigoid dye (total)” value in experiment [2] (50 μM compound V, 200 nM β-glucosidase, 37° C., 5 h, MCA) stood at 3.1%. Besides, in experiment [2] (setting [7]), the “Coumarin in the precipitate” value is on record as 51.6 nmol and the “Coumarin in the supernatant” value was 11.1 nmol. In addition, the “Size of aggregates (optical microscopy)” value in experiment [2] (precipitate after 300 min suspended in H2O) is on record as approximately 1 μm. In addition, the “Total quantity of indigoid dye” value in experiment [2] (precipitate plus supernatant) came to 3.1 nmol. Further, in experiment [2] (precipitate plus supernatant, 100 nmol compound V added), the “Total amount of coumarin calculated by MCA” value is 62.7 nmol.
As to `C#CCOc1ccc2[nH]cc(O[C@@H]3O[C@H](CO)[C@@H](O)[C@H](O)[C@H]3O)c2c1Br` [Compound 26, 4-Bromo-5-propargyloxy-1H-indol-3-yl β-D-glucopyranoside], the “Yield (%) β-glucosidase from almonds” value in experiment [1] (setting [5]) came to 56%.
As for `O=S(=O)([O-])CCC[N+]1(CCCO)CCN(c2nc(OCCOCCOCCOc3c(Br)cc4[nH]cc(O[C@@H]5O[C@H](CO)[C@@H](O)[C@H](O)[C@H]5O)c4c3Br)nc(OCCOCCOCCOc3c(Br)cc4[nH]cc(O[C@@H]5O[C@H](CO)[C@@H](O)[C@H](O)[C@H]5O)c4c3Br)n2)CC1` [Compound 46], the “Total yield of indigoid dye (supernatant plus precipitate)” value in experiment [3] (entries 1-4 of Table 2, [46] 300 to 10 μM) is 17-29%. Besides, the “Yield of indigoid dye (%) supernatant” value in experiment [3] (entry 1: [46] 300 μM, 2 h, phosphate buffer containing NaCl (0.05M), ε = 2.6 × 10^4) is reported as 6%. Also, in experiment [3] (larger scale (7.87 mg), conditions of entry 5 in Table 2), the “Yield of precipitate based on the monomer formula weight” value was determined as 49%. In experiment [3] (precipitate suspended in H2O, 300 μM of 46, entry 5 conditions), the “Particle size of the precipitate (DLS, number mean)” value is approximately 680 nm.
As to “5-{[(1R,8S,9s)-Bicyclo[6.1.0]non-4-yn-9-yl]methoxy}-4,6-dibromo-1H-indole-3-yl β-D-glucopyranoside [Compound 30]”, the “Yield (%) β-glucosidase from Agrobacterium” value in experiment [4] (as E4 but ϵ = 2.6 × 10^4 M^−1 cm^−1 measured for 43) was 10% and 10 ± 0.4%; in experiment [4] (indoxyl 100 μM, enzyme 200 nM, 0.05M phosphate buffer pH 7.0, 2% DMF, 37° C., 2 h, n=3, ϵ = 1.27 × 10^4 M^−1 cm^−1), 21 ± 1%.
